The record followed here is patent US20240059719A1, “GOLD COMPLEXES AS ANTICANCER AGENT” (King Saud University, priority 2023, published 2024).

Common to all, as to type: cell-based
In test [1] the test system is MCF-7 breast cancer cells. Description: MTT cell viability analysis (cytotoxicity). Particulars: Homo sapiens, MCF7, MCF-7 cells, 24 hours treatment. Here is the method: MTT (3-(4,5-dimethylthiazol-2-yl)-2,5-diphenyltetrazolium bromide) assay was used for cell viability analysis. MCF-7 breast cancer cells were seeded in a cell culture plate (96-well) at 10^4 cells per well in 200 μl of Dulbecco's modified Eagle medium (DMEM). […] MTT solution (20 μl of 5 mg/mL) was added to each well of the micro plate, which were then incubated in a CO2 incubator at 37° C. for 3 hours. After incubation, the culture medium was removed and 100 μL of isopropanol were added to each well of the micro plate and the absorbance was recorded at 570 nm against reagent blank. The cell viability was calculated using the formula:
Cell viability %=100*(Absorbance sample)/(Absorbance blank)

For test [2], the system named is MCF-7 cells. Description: Mitochondrial membrane potential analysis (Muse MitoPotential flow cytometry). Particulars: 24 hours. The method, then:
Muse MitoPotential Flow Cytometry Kit (Luminex, IL, USA) was used for measuring mitochondrial membrane potential (MMP). MCF-7 cells were seeded (15000 cells per well) in a 6-wells culture plate. […] A negative control (DMSO) was run in parallel. Finally, the cells were stained with Mito Potential reagents provided in the kit, following the manufacturer's instructions, and then analyzed by flow cytometry.

For test [3], the system named is MCF-7 cells. Description: Reactive oxygen species analysis (Muse Oxidative Stress Kit, flow cytometry). Particulars: 24 h. The method, then:
For the analysis of reactive oxygen species (ROS), MCF-7 cells were seeded ([…]) in a 6-well plate and allowed to grow for 24 h at 37° C. under the environment of 5% CO2 and 95% humidity. […] DMS( )served as a negative control. The final DMSO concentration in each well was less than 0.1%. After harvesting the cells, they were stained with Muse® Oxidative Stress Kit (Luminex, IL, USA) following the manufacturer's instructions. The percentage of cells with oxidative stress was measured by flow cytometry analysis.

Test [4] concerns MCF-7 cells. Put plainly: Intracellular ATP analysis (colorimetric ATP assay kit). The settings on record: 0-100 μM, 12 h. Here is the method: The intracellular ATP levels were determined after the exposure of PBTDG and erlotinib (0-100 μM) to MCF-7 cells for 12 h using a colorimetric ATP assay kit (Sigma-Aldrich, USA) according to the manufacturer instructions. The unknown concentrations of the test samples were calculated using the linear standard curve generated from the concentration of 0-12 nmole ATP. […]

Regarding `CNC(=O)c1cc(Oc2ccc(NC(=O)Nc3ccc(Cl)c(C(F)(F)F)c3)cc2)ccn1` [sorafenib], inhibition in test [1] was half-maximal at 4.45 µM (IC50). Further, the Mitochondrial membrane depolarization is recorded as 2.7% in test [2] (1.0 μM) and 12.0% in test [2] (5.0 μM). The ROS generation in test [3] (1 μM) is reported as 73.76%; in test [3] (5 μM) it was 122.11%.

Turning to `C#Cc1cccc(Nc2ncnc3cc(OCCOC)c(OCCOC)cc23)c1` [erlotinib], the “Effect on intracellular ATP levels” value in test [4] was “depleted”.
